Results: patent publication US20240269170A1, “Treatment of Inflammatory Conditions or Diseases” (Queen Mary University of London, priority 2021, published 2024)

Tested on: K/B×N serum induced arthritis in C57BL/6 mice
Experiment: Sustained K/B×N serum induced arthritis, MCTR3 given 10 days after disease onset
Format: in vivo, mouse
Experimental: (A-D) K/B×N serum (100 μL via intraperitoneal injection, i.p.) was administered to C57BL/6 mice on days 0, 2 and 8 to initiate and prolong inflammatory arthritis. Mice were treated 1 μg/mouse MCTR3 or vehicle (PBS+0.1% EtOH) on day 10, 12 and 14 via intravenous (i.v.) injection. Disease course was assessed by evaluating A) clinical scores and B) paw oedema daily. Results are mean±SEM, n=9 mice per group. Statistical differences were evaluated using a Two-Way ANOVA. Arrows denote days when MCTR3 was administered. (C,D) paws were harvested on day 25, and cells liberated from the joints and the expression of phenotypic markers was evaluated on joint macrophages using flow cytometry and PLS-DA. (C) scores plot with highlighted regions denoting the clusters representing cells from each group and (D) VIP scores for each of the markers evaluated. Each dot in the score plot represents a separate mouse. (E-H) Arthritis was induced in DBA/1 mice by administration of 10 μg G6PI in CFA on Day 0. On day 24, 26 and 28 (denoted in blue arrows), mice were administered 1 μg/mouse MCTR3 or vehicle (PBS+0.1% EtOH) i.v. and (E) clinical scores and (F) paw oedema were measured. Results are mean±SEM, n=mice 7 per group from 2 separate experiments. Statistical differences were evaluated using a Two-Way ANOVA. (G-H) paws were harvested on day 36, and cells liberated from the joints and the expression of phenotypic markers was evaluated on joint macrophages using flow cytometry and PLS-DA. (G) scores plot with highlighted regions denoting the clusters representing cells from each group and (H) VIP scores for each of the markers evaluated. Each dot in the score plot represents a separate mouse.
FIG. 2: MCTR3 promotes bone and cartilage repair. C57BL/6 mice were administered 100 μL K/B×N serum i.p. on day 0, 2 and 8. Mice were treated with 1 μg/mouse MCTR3 or vehicle (PBS+0.1% EtOH) i.v. on day 10, 12 and 14. Hind paws and blood were collected on day 25 and A) glycosaminoglycan content was evaluated using Safranin-O staining. (left and centre panels) Representative images from Safranin-O stained knee joints and (right panel) quantification of Safranin-O stained knee joints. Results are mean±SEM, n=8 per group. Statistical differences were evaluated using Mann-Whitney U test. B-D) Expression of collagen type 2 (Col 2) and collagen type X (Col X) was evaluated using immunohistochemistry. B) Representative images from immunofluorescent assessment of Col 2 and Col X expression, C) mean intensity of Col 2 and D) average number of cells expressing Col X. Results are mean±SEM, n=5 per group, statistical differences were evaluated using Mann-Whitney U test. E-I) microCT analysis was performed on ankle joints ex vivo to assess bone callus cover. D) Representative images of ankles from vehicle and MCTR3 treated mice, where red represents the callus area. F) Callus tissue volume, G) bone volume, H) bone surface and I) the ratio of bone surface to bone volume of the ankles from mice treated with either vehicle or MCTR3. Results are mean±SEM, n=8 per group from two separate experiments. Statistical differences were evaluated Mann-Whitney U test. J,K) Blood was collected at the end of the experiment and plasma PINP and CTX-I levels were assessed. Results are mean±SEM, n=5 for Vehicle and n=7 for MCTR3 groups. Statistical differences were evaluated Mann Whitney U test.
FIG. 8: MCTR3 decreased leukocyte infiltration and cartilage damage in arthritic mice. Related to FIG. 1. C57BL/6 mice were administered 100 μL K/B×N serum i.p. on day 0, 2 and 8. Mice were treated with 1 μg/mouse MCTR3 or vehicle i.v. (PBS+0.1% EtOH) on day 10, 12 and 14. Hind paws were collected on day 25, fixed and stained using H&E stain. (A) representative images (B) Pannus size (C) leukocyte infiltration and (D) cartilage damage were evaluated. Results are mean±SEM. n=5 mice per group. IFP=intrapatellar fat, M=meniscus, TB=Tibia, PF=Pannus formation, Red arrows denote leukocyte infiltration. […]

[1] = 1 μg/mouse i.v. on day 10, 12 and 14
[2] = 1 μg/mouse i.v. on day 10, 12 and 14, hind paws day 25
[3] = 1 μg/mouse i.v., ELISA, end of experiment
[4] = 1 μg/mouse i.v., ankle joints day 25, microCT
[5] = 1 μg/mouse i.v., day 25, flow cytometry, VIP score
[6] = 1 μg/mouse i.v., day 25, immunohistochemistry

`CC/C=C\C/C=C\C[C@H](O)[C@@H](/C=C/C=C/C=C\C/C=C\CCC(=O)O)SC[C@H](N)C(=O)O` [MCTR3, 13R-cysteinyl, 14S-hydroxy-4Z, 7Z, 9E, 11E, 13R, 14S, 16Z, 19Z-docosahexaenoic acid] was tested, and the clinical scores [1] was “significant reduction”, the joint oedema [1] was “marked reduction” and the “safranin O-staining in joints (glycosaminoglycan content)” value (1 μg/mouse i.v. on day 10, 12 and 14, day 25) was “significantly higher”. For the same compound, the “cartilage damage (H&E)” value [2] was “significantly reducing”, the “leukocyte infiltration (H&E)” value [2] was “significantly reducing” and the resolution interval (1 μg/mouse i.v. on day 10, 12 and 14, vehicle ~9 days) was ~5 days. For the same compound, the “plasma CTX concentrations (bone resorption marker)” value [3] was “significant reduction”, the “plasma PINP levels (bone formation marker)” value [3] was “similar” and the “bone callus size (total volume and surface area occupied by the callus)” value [4] was “smaller”. The “surface to volume ratio in the callus” value [4] was “significant increase”, the “Arginase (Arg)-1 in joint macrophages” value [5] was “upregulation” and the “Interleukin (IL)-10 in joint macrophages” value [5] was “upregulation”. The “expression of collagen 2 in joints” value [6] was “increase” and the “expression of collagen X in joints” value [6] was “increase”.
